# Measured values from EPA's aquatic toxicity sets.
# System: Daphnia magna
# Test: 48 h LC50 (-log10 mol/L); higher = more toxic
row,Structure (SMILES),48 h LC50 (-log10 mol/L)
1,CN(C)[C@@H]1C(=O)C(C(N)=O)=C(O)[C@@]2(O)C(=O)C3=C(O)c4c(O)ccc(Cl)c4[C@@](C)(O)[C@H]3C[C@@H]12,3.57
2,CCNC(=S)Nc1ccccc1,3.35
3,Clc1cccc(Cl)c1Cl,4.75
4,COCC(=O)N(c1c(C)cccc1C)[C@H](C)C(=O)OC,3.54
5,CC(C)(C)NC(=O)[C@@H]1C[C@@H]2CCCC[C@@H]2CN1C[C@@H](O)[C@H](Cc1ccccc1)NC(=O)[C@H](CC(N)=O)NC(=O)c1ccc2ccccc2n1,4.27
6,CC(C)NCC(O)COc1ccc(CC(N)=O)cc1 (configuration not stated),3.9
7,Cc1cc(C)c(C)cc1C,5.45
8,C1CCCC1,3.81
9,CCOP(=O)(SC(C)CC)N1CCSC1=O (configuration not stated),5.76
10,CC(c1ccc(Cl)cc1)c1ccc(Cl)cc1,6.86
11,Cc1cc(Cl)ccc1OCC(=O)O,3.05
12,COc1c(C(C)(C)C)cc([N+](=O)[O-])c(C)c1[N+](=O)[O-],5.64
13,Fc1ccc([C@@]2(Cn3cncn3)O[C@@H]2c2ccccc2Cl)cc1,4.58
14,C/C=C(\C)C(=O)O[C@H]1C[C@@H](OC(C)=O)[C@@]2(C(=O)OC)CO[C@H]3[C@@H](O)[C@@](C)([C@]45O[C@@]4(C)[C@H]4C[C@@H]5O[C@@H]5OC=C[C@@]54O)[C@H]4[C@]1(CO[C@]4(O)C(=O)OC)[C@@H]32,6.06
15,C=C1C[C@]23C[C@@]1(O)CC[C@H]2[C@@]12C=C[C@H](O)[C@@](C)(C(=O)O1)[C@H]2[C@@H]3C(=O)O,4.19
16,CC1=CCC2CC1C2(C)C (configuration not stated),3.52
17,C1CCNCC1,3.93
18,Brc1ccc(Oc2cc(Br)c(Br)cc2Br)c(Br)c1,7.02
19,Nc1ccn([C@H]2CC[C@@H](CO)O2)c(=O)n1,2.07
20,CC1(C)[C@H](/C=C(\Cl)C(F)(F)F)[C@@H]1C(=O)O[C@@H](C#N)c1cccc(Oc2ccccc2)c1,8.68
21,Cc1ccc(Cl)cc1[N+](=O)[O-],4.27
22,CCCC1O[C@@H]2C[C@H]3[C@@H]4CCC5=CC(=O)C=C[C@]5(C)[C@H]4[C@@H](O)C[C@]3(C)[C@]2(C(=O)CO)O1 (some centres not stated),4.33
23,CC(C)C(=O)Nc1ccc([N+](=O)[O-])c(C(F)(F)F)c1,5.3
24,c1ccc2c(c1)ccc1sc3ccccc3c12,6.03
25,CCNc1nc(Cl)nc(NC(C)(C)C#N)n1,6.45
26,CC(C)(C)[C@H](O)[C@H](Cc1ccc(Cl)cc1)n1cncn1,4.01

row,Structure (SMILES),48 h LC50 (-log10 mol/L)
1,CCCCCCCCc1ccc(O)cc1,6.36
2,O=c1cc[nH]c(=S)[nH]1,4.22
3,CCC(C)c1ccccc1OC(=O)NC (configuration not stated),6.32
4,CCCCC(CC)COC(=O)CCCCC(=O)OCC(CC)CCCC (configuration not stated),5.75
5,CCNC(=S)NCC,2.84
6,CO/C=C(/C(=O)OC)c1ccccc1Oc1cc(Oc2ccccc2C#N)ncn1,6.39
7,CCCCCCCCCC,5.3
8,O=CCCCC=O,3.79
9,Cc1ccc(C(=O)c2cc(O)c(O)c([N+](=O)[O-])c2)cc1,4.14
10,CC(C)CC[C@@H](O)[C@](C)(O)[C@H]1CC[C@@]2(O)C3=CC(=O)[C@@H]4C[C@@H](O)[C@@H](O)C[C@]4(C)[C@H]3CC[C@]12C,6.42
11,CCCCC(CC)COP(=O)(Oc1ccccc1)Oc1ccccc1 (configuration not stated),6.38
12,CC(C)(C)C(=O)Cl,2.58
13,COc1cccc(N)c1,5.64
14,O=[N+]([O-])c1ccc(Oc2c(Cl)cc(Cl)cc2Cl)cc1,5.88
15,Cc1ncc2n1-c1ccc(Cl)cc1C(c1ccccc1F)=NC2,6.21
16,CC(C)(C)CC(C)(C)c1ccc(O)cc1,6.36
17,Nc1nc(N)c2nc(-c3ccccc3)c(N)nc2n1,4.4
18,Cc1cc(C)cc(C)c1,4.3
19,c1ccc2c(c1)Cc1ccccc1O2,3.95
20,CCCCC,3.87
21,COc1ccccc1,3.43
22,ClCC(Cl)(Cl)Cl,3.84
23,CN(C)C(=S)N(C)C,2.23
24,CCCC1COC(Cn2cncn2)(c2ccc(Cl)cc2Cl)O1 (configuration not stated),4.72
25,CC(C)N(C(=O)SCC(Cl)=C(Cl)Cl)C(C)C,6.46
26,Nc1cc(Cl)c(Cl)cc1Cl,4.76

row,Structure (SMILES),48 h LC50 (-log10 mol/L)
1,Nc1nc(=S)c2[nH]cnc2[nH]1,4.01
2,COc1c(Cl)c(Cl)c(Cl)c(Cl)c1Cl,7.01
3,CN(C)C(=S)SSC(=S)N(C)C,6.06
4,Cc1ccc(C(C)C)cc1,4.32
5,COc1ccc2cc([C@H](C)C(=O)O)ccc2c1,3.79
6,FC(F)C(F)(F)OCC(Cn1cncn1)c1ccc(Cl)cc1Cl (configuration not stated),4.71
7,CCN(CC)C(=O)SCc1ccc(Cl)cc1,5.55
8,Cc1cn([C@H]2C=C[C@@H](CO)O2)c(=O)[nH]c1=O,2.36
9,O=S1(=O)c2ccccc2-c2ccccc21,4.57
10,Cc1ccc(Cl)cc1,4.93
11,BrC1CCCCC1,3.89
12,N#Cc1ncccn1,3.34
13,CCN(CC)C(=S)SSC(=S)N(CC)CC,5.98
14,CC(Cc1ccc(C(C)(C)C)cc1)CN1CCCCC1 (configuration not stated),5.72
15,Clc1ccc(Cl)c(-c2cc(Cl)ccc2Cl)c1,6.99
16,Clc1ccc(-c2ccc(Cl)cc2Cl)cc1,6.21
17,CC(=O)Oc1c(C)cc(OCC(O)CNC(C)C)c(C)c1C (configuration not stated),3.92
18,O=c1[nH]cc(F)c(=O)[nH]1,3.72
19,CC1(C)[C@H](C(=O)O[C@H](C#N)c2cccc(Oc3ccccc3)c2)[C@@H]1C(Br)C(Br)(Br)Br (some centres not stated),9.95
20,CCS,5.56
21,Cc1csc2ccccc12,4.76
22,CNC(=O)Oc1cccc2c1OC(C)(C)O2,6.88
23,Oc1ccc(Cl)cc1Cl,4.8
24,C[C@]12C=CC(=O)C=C1C(Cl)=C[C@@H]1[C@@H]2[C@@H](O)C[C@@]2(C)[C@H]1CC[C@]2(O)C(=O)CO,3.96
25,c1ccc2cc3c(ccc4ccccc43)cc2c1,6.22
26,Nc1cc(Cl)c(Cl)c(Cl)c1Cl,5.56

row,Structure (SMILES),48 h LC50 (-log10 mol/L)
1,FCC(F)(F)F,2.02
2,C[C@]12C/C(=C/O)C(=O)C[C@@H]1CC[C@@H]1[C@@H]2CC[C@@]2(C)[C@H]1CC[C@]2(C)O,4.54
3,ClCCCCl,2.61
4,CCCS,6.1
5,CC(F)(Cl)Cl,3.58
6,COP(=O)(NC(C)=O)SC (configuration not stated),4.11
7,ClCCOCCCl,2.78
8,CCc1nc(N)nc(N)c1-c1ccc(Cl)cc1,4.63
9,CN1C(=O)CN=C(c2ccccc2)c2cc(Cl)ccc21,4.82
10,CC(C)NCC(O)c1ccc(NS(C)(=O)=O)cc1 (configuration not stated),2.96
11,Oc1cc(Cl)ccc1Oc1ccc(Cl)cc1Cl,6.11
12,c1cc2ccc3cccc4ccc(c1)c2c34,6.17
13,c1ccc2sc(SSc3nc4ccccc4s3)nc2c1,3.62
14,CC1(C)C(C=C(Cl)Cl)C1C(=O)OCc1cccc(Oc2ccccc2)c1 (configuration not stated),8.07
15,CC(C)(C)NCC(O)COc1cccc2c1C[C@H](O)[C@H](O)C2 (some centres not stated),3.28
16,CSc1nc(NC2CC2)nc(NC(C)(C)C)n1,4.49
17,CC(Cc1ccc(C(C)(C)C)cc1)CN1C[C@@H](C)O[C@@H](C)C1 (some centres not stated),5.1
18,c1ccc2c(c1)sc1ccccc12,5.6
19,CC(C)(Oc1ccc(Cl)cc1)C(=O)O,3.47
20,Cc1nc2n(c(=O)c1CCN1CCC(c3noc4cc(F)ccc34)CC1)CCCC2,4.83
21,Cc1c(COC(=O)[C@@H]2[C@H](/C=C(\Cl)C(F)(F)F)C2(C)C)cccc1-c1ccccc1,8.11
22,CCNc1nc(Cl)nc(NCC)n1,3.33
23,CC/C(=C(/CC)c1ccc(O)cc1)c1ccc(O)cc1,5.37
24,CNC(=S)N(C)C,2.19
